Laboratory results from US9050375B2, “Bi-specific digoxigenin binding antibodies” (priority 2009, dated 2015).
Several values for one entry are separate records, joined by “and”; a condition that tells them apart may be missing. Equal entries are not always repeated. {Dig} = digoxigenin coupled through a C6 amino linker; {Cy5} = Cy5 fluorescent dye label; d = 2'-deoxy (DNA); m = 2'-O-methyl; r = 2'-OH (RNA)

Columns and labels:
[1] = Excitation and emission spectra of Cy5, Dig-Cy5 and complex; format: physicochemical
Description: To evaluate whether digoxygenation of Cy5 alters its fluorescence features, we compared the excitation and emission spectra of Cy5 and compared it with the spectra of the newly generated Dig-Cy5 and with Dig-Cy5 within a complex with bispecific antibodies. […] We conclude that Dig-Cy5 and -complexes can be applied for antibody-mediated targeting and in vivo imaging.

[2] = system: Eg5 mRNA in HeLa-S3 cells; assay: Eg5 bDNA assay of transfected siRNAs; format: cell-based, human; conditions: Lipofectamine 2000 transfection, 24 hours
Description: To evaluate whether additions or alterations of siRNAs by digoxygenin alters its biological activity, we performed in vitro assays in cell culture. For that, we chose to assess the activity of siRNA that inactivates the mRNA of Eg5. The direct effect of Eg5 siRNA activity is down-regulation of its cognate mRNA. This can be quantified by bDNA (branched DNA) assays, which detect the amount of specific mRNAs in cells (Burris et al., 1999, Molecular Endocrinology). To perform these assays, we seeded a defined number of the respective cell type into 96-well plates and allowed them to attach over night. The next day cells were transfected with desired amounts of a certain siRNA or treated with the agent whose effect on the mRNA-level should be analysed. After 24 hours the QuantiGene kit protocol was followed according to the instructions of the manufacturer (Affymetrix) in order to quantify the mRNA levels. Briefly, the cell lysates were transferred to a capture plate in the presence of a gene-specific probe set and then incubated at 53° C. over night. Wells were washed. They were then incubated at 53° C. sequentially with an Amplifier and an alkaline phosphatase-linked label probe with a wash between the incubations. After a final wash, the luminescent alkaline phosphatase substrate dioxitane was added and was incubated for 30 min at 53° C. The luminescence was detected using a InfiniteF200 luminescence reader (Tecan Austria, Gröding). The biological activity of siRNAs that target Eg5 can not only be determined by bDNA analyses, but also by the phenotype that is caused by Eg5 mRNA depletion in growing cells. Eg5 is a motor protein that belongs to the kinesin-like protein family. Eg5, also known as KSP (kinesin spindle protein), is essential for the formation of the bipolar mitotic spindle and is required for the proper separation of the spindle poles. Depletion of Eg5 leads to the formation of characteristic monoaster spindles and activates the spindle checkpoint. This causes a mitotic arrest that ultimately leads to apoptosis (Tao et. al., Molecular and cellular biology. 2007 January; 27(2):689-98) (Tao W. et. al., Cancer Cell. 2005; 8:49-59.) Because of that, inactivation of Eg5 by siRNA mediates in many cases a cytotoxic phenotype to cultured cells. Therefore, the biological activity of Eg5 siRNA can be analyzed by monitoring the number of living cells.
Table 7 summarizes the results of the bDNA and cytotox assays that we performed to compare the biological activities of transfected siRNAs with that of their transfected digoxygenated counterparts. For the bDNA assays, we seeded HeLa-S3 cells into 96-well plates and allowed them to attach over night. The next day cells were transfected with the indicated amounts of siRNA using the Lipofectamine™ 2000 transfection reagent according to the instructions of the manufacturer (Invitrogen). After 24 hours the QuantiGene kit protocol was followed according to the instructions of the manufacturer (Affymetrix) in order to quantify the mRNA levels of the Eg5 mRNA.

KPL-4 cells = assay: Cytotox assay (CellTiter-Glo) of transfected siRNAs; format: cell-based, human; conditions: Dharmafect transfection, 48 hours
Description: To measure the number of living cells the CellTiter-Glo Luminescent Cell Viability Assay (Promega Madison, Wis.) assay was applied according to the protocol supplied by the manufacturer. In this assay the cells are lysed and a luminescent signal proportional to the ATP amount is generated. The ATP amount is directly proportional to the number of living cells. The 96 well plates were then analyzed in a InfiniteF200 luminescence reader (Tecan Austria, Gröding).
For the cytotox assays, KPL-4 cells were seeded at a density of 7000 cells per well in 96 well plates. The cells were incubated for 24 hours at 37° C., 5% CO2 and 85% humidity in RPMI with 10% FCS and L-Glutamine. The next day cells were transfected with the indicated amounts of siRNA using the Dharmafect transfection reagent according to the instructions of the manufacturer (Dharmacon). After 48 hours the cells were treated with the CellTiter-Glo-assay reagent according to the manufacturers instructions.

Eg5-siRNA-DIG = assay: SPR (Biacore) binding to mono-digoxygenated siRNA; conditions: 25° C.
Description: (§2) For that, binding properties of the recombinant <Dig> derivatives were analyzed by surface plasmon resonance (SPR) technology using a Biacore T100 or Biacore 3000 instrument (GE Healthcare Bio-Sciences AB, Uppsala). […] To perform the binding studies capturing anti-human IgG antibody was immobilized on the surface of a CM5 biosensor chip using amine-coupling chemistry. Flow cells were activated with a 1:1 mixture of 0.1 M N-hydroxysuccinimide and 0.1 M 3-(N,N-dimethylamino)propyl-N-ethylcarbodiimide at a flow rate of 5 μl/min. […] A reference control flow cell was treated in the same way but with vehicle buffers only instead of the capturing antibody. Surfaces were blocked with an injection of 1 M ethanolamine/HCl pH 8.5. […]
(§3) Anti-mouse IgG antibody was immobilized on the surface of a CM5 biosensor chip in the same fashion as described above. […] The samples to be analyzed were diluted in HBS-P (10 mM HEPES, pH 7.4, 150 mM NaCl, 0.005% Surfactant P20) and injected at a flow rate of 5 μl/min. […] Signals were detected at a rate of one signal per second.
(§4) The samples to be analyzed were diluted in HBS-P and injected at a flow rate of 5 μl/min. […]

Eg5-siRNA-(2×)DIG = assay: SPR (Biacore) binding to bi-digoxygenated siRNA; conditions: 25° C., read-out: KD, binding of siRNA-(2x)DIG
Description: as §2, §3, §4

DIG-Myoglobin = assay: SPR binding to mono-digoxygenated protein DIG-myoglobin
Description: (§1) For that, binding properties of the recombinant <Dig> derivatives were analyzed by surface plasmon resonance (SPR) technology using a Biacore T100 or Biacore 3000 instrument (GE Healthcare Bio-Sciences AB, Uppsala). This system is well established for the study of molecule interactions. It allows a continuous real-time monitoring of ligand/analyte bindings and thus the determination of association rate constants (ka), dissociation rate constants (kd), and equilibrium constants (KD) in various assay settings. SPR-technology is based on the measurement of the refractive index close to the surface of a gold coated biosensor chip. Changes in the refractive index indicate mass changes on the surface caused by the interaction of immobilized ligand with analyte injected in solution. If molecules bind to immobilized ligand on the surface the mass increases, in case of dissociation the mass decreases. To perform the binding studies capturing anti-human IgG antibody was immobilized on the surface of a CM5 biosensor chip using amine-coupling chemistry. Flow cells were activated with a 1:1 mixture of 0.1 M N-hydroxysuccinimide and 0.1 M 3-(N,N-dimethylamino)propyl-N-ethylcarbodiimide at a flow rate of 5 μl/min. […] A reference control flow cell was treated in the same way but with vehicle buffers only instead of the capturing antibody. Surfaces were blocked with an injection of 1 M ethanolamine/HCl pH 8.5. To compare the binding of the humanized protein variants with that of the murine <Dig> IgG from the original hybridoma 19-11, capturing anti-mouse IgG antibody was immobilized on the surface of a CM5 biosensor chip in the same fashion as described above for the anti-human IgG antibody. To evaluate the functionality of the recombinant <Dig> derivatives, binding of the recombinant hu<Dig> modules, incl. (i) humanized IgG, (ii) fusion proteins harboring hu<Dig> scFv or (iii) disulfide-stabilized scFvs was assayed with different digoxygenated antigens The resulting binding affinities were compared to the binding of the murine ‘wildtype’ DIG-IgG from which the recombinant humanized modules were derived.
Another SPR study was performed in which the binding affinity of <DIG>-hu2, IGF1R-DIG and <DIG> M-19-11 was compared in terms of binding to the mono-digoxygenated protein DIG-myoglobin.

DIG-siRNA2349 = assay: SPR binding to DIG-siRNA2349; conditions: analyte DIG-siRNA2349; replicate lines; listed as <DIG>M-19-11
Description: as §1, with “derived. […]” for “derived.”

[3] = analyte DIG-Myoglobin, replicate lines, listed as <DIG>M-19-11

For Cy5 [reference compound], the “Emission wavelength (max.)” value [1] was “at 670 nm” and the Excitation wavelength [1] was 575-605 nm.

“Dig-Eg5 siRNA: mono-digoxygenated Eg5 siRNA, Seq. ID NO. 25/32 (chain 1 CUGAAGACCUGAAGACAAUUU; chain 2 AUUGUCUUCAGGUCUUCAGUU; chain 1: 2'-O-methyl at CU, RNA at AG, 3' {Dig}, backbone not given here; chain 2: RNA, backbone not given here; further chemistry not fully specified)” showed an IC50 [2] of 0.035 nM and an IC50 (KPL-4 cells) of 4 nM.

“Dig-Eg5-Cy5 siRNA: digoxygenated Cy5-labeled Eg5 siRNA, Seq. ID NO. 27/34 (chain 1 CUGAAGACCUGAAGACAAUUU; chain 2 AUUGUCUUCAGGUCUUCAGUU; chain 1: RNA, 5' {Cy5}, 3' {Dig}, backbone not given here; chain 2: RNA, backbone not given here)” showed an IC50 [2] of 0.013 nM and an IC50 (KPL-4 cells) of 215 nM.

“Dig-Luciferase siRNA: digoxygenated luciferase siRNA, Seq. ID NO. 23/30 (chain 1 CUUACGCUGAGUACUUCGATT; chain 2 UCGAAGUACUCAGCGUAAGTT; chain 1: DNA at T, 2'-O-methyl at CU, RNA at AG, 3' {Dig}, backbone not given here; chain 2: sugars from the 5' end rrrrrrmrrrmrrrrmrrrdd, backbone not given here; further chemistry not fully specified)” showed an IC50 [2] of over 100 nM.

“Eg5 siRNA: siRNA targeting Eg5, Seq. ID NO. 24/31 (chain 1 CUGAAGACCUGAAGACAAUUU; chain 2 AUUGUCUUCAGGUCUUCAGUU; chain 1: sugars from the 5' end r18 m3, backbone not given here; chain 2: RNA, backbone not given here)” gave an IC50 [2] of 0.016 nM and an IC50 (KPL-4 cells) of 28 nM.

“Luciferase siRNA: control siRNA, Seq. ID NO. 22/29 (chain 1 CUUACGCUGAGUACUUCGATT; chain 2 UCGAAGUACUCAGCGUAAGTT; chain 1: DNA at T, 2'-O-methyl at CU, RNA at AG, backbone not given here; chain 2: sugars from the 5' end rrrrrrmrrrmrrrrmrrrdd, backbone not given here) [reference compound]” showed an IC50 [2] of over 100 nM.

B1: murine DIG-IgG 19-11: hybridoma clone 19-11 derived murine anti-digoxigenin IgG1 kappa; VL Seq. ID. NO. 1, VH Seq. ID. NO. 2 (antibody, listed as Mus musculus, V domains shown)
VH: MNFVLSLIFLALILKGVQCEVQLVESGGGLVKPGGSLKLSCAVSGFTFSDYAMSWIRQTPENRLEWVASINIGATYAYYPDSVKGRFTISRDNAKNTLFLQMSSLGSEDTAMYYCARPGSPYEYDKAYYSMAYWGPGTSVTVSS
VL: MSSAQFLGLLLLCFQGTRCDVQMTQSTSSLSASLGDRVTISCRASQDIKNYLNWYQQKPGGTVKLLIYYSSTLLSGVPSRFSGRGSGTDFSLTITNLEREDIATYFCQQSITLPPTFGGGTKLEIK
notes: hybridoma clone 19-11 derived murine anti-digoxigenin IgG1 kappa; ID; NO
With B1 the Kd (Eg5-siRNA-DIG) was 0.269 nM, the Kd (Eg5-siRNA-(2×)DIG) was 0.017 nM and the “affinity to DIG-Myo compared with <DIG>-hu2 and disulfide-stabilized <DIG> scFv” value (DIG-Myoglobin; SPR) was “about a hundred fold better”. For the same molecule, the ka (DIG-Myoglobin; [3]) was 1.75e+06 M⁻¹ s⁻¹ and 2.28e+06 M⁻¹ s⁻¹, the kd (DIG-Myoglobin; [3]) was 0.000676 s⁻¹ and 0.000675 s⁻¹ and the Kd (DIG-siRNA2349) was 0.276 nM and 0.371 nM. For the same molecule, the ka (DIG-siRNA2349) was 3.27e+06 M⁻¹ s⁻¹ and 2.26e+06 M⁻¹ s⁻¹ and the kd (DIG-siRNA2349) was 0.000903 s⁻¹ and 0.000838 s⁻¹.
